Consider three compounds from paper PMC11672292, “Discovery of Balasubramide Derivative with Tissue‐Specific Anti‐Inflammatory Activity Against Acute Lung Injury by Targeting VDAC1” (Advanced Science, 2024).

One data set relates to RAW264.7 cells. The experiment in a line: CCK-8 cell viability assay. The format is cell-based, mouse. To be noted: 10 μM, 24 h. Here is the method: Cell viability was determined by CCK‐8 assay. RAW264.7 cells or mouse BMDMs cultured in a 96‐well plate were pretreated with various compounds at 10 µM or different concentrations of (+)3C‐20 for 24 h when cells reached 70% confluence and then were treated with DMEM containing 5 µL CCK‐8 reagent (A311, Vazyme, China) in a humidified atmosphere of 5% CO2 and 95% air for 1 h at 37 °C. The UV absorption values of the medium with CCK‐8 were measured at 450 nm in a ThermoFisher plate‐reader (VL0L0TD2, Waltham, USA).

In data set [1] the test system is LPS-stimulated RAW264.7 cells. As to the kind of experiment: LPS-induced TNF-α release in RAW264.7 macrophages (ELISA). Type of data set: cell-based, mouse. To be noted: for IC50: read-out: IC50, inhibition of LPS-induced TNF-α release. The method, then: The anti‐inflammatory effects of all (+)‐balasubramide derivatives were evaluated in Lipopolysaccharide (LPS, L2630, Sigma–Aldrich, USA)‐induced macrophage inflammation model. RAW264.7 cells were pretreated with various compounds or (+)3C‐20 at different concentrations for 3 h, and then stimulated with LPS (100 ng mL^−1) for 2 h for the detection of pro‐inflammatory factors expressions. Similarly, following 3 h co‐incubation with (+)3C‐20, mouse BMDMs were stimulated with LPS (100 ng mL^−1) for 3 h. TNF‐α protein in the culture medium supernatant was measured by a commercial ELISA kit (#1 217 202, DAKEWE, China) following the manufacture's protocols.

The subject of a further data set is mice. The experiment in a line: Acute toxicity (LD50, sequential method), single intravenous injection. To be noted: for Mortality: i.v.

Molecules are shown by their SMILES.

Excerpt for mice: To test the safety of (+)3C‐20 in mice, as previously reported,^[ [31] ^] we estimated the acute toxicity of (+)3C‐20 in mice using a sequential method.

With `CN1CCc2c([nH]c3ccccc23)C(c2ccccc2)C(O)C1=O` (single isomer, unassigned; (+)) [(+)3J], in the data set with RAW264.7 cells, the cell viability stood at 95.09 ± 1.19. In addition, the “effect on the release of TNF-α” value in data set [1] (LPS-induced RAW 264.7 macrophage inflammation model) was “a certain inhibitory effect”. The inhibition at 10 µM in data set [1] (Mus musculus, 10 μM + LPS (100 ng/mL), RAW264.7 cells, n = 3, read-out: Inhibition rate (%) of TNF-α release) amounted to 19.1 ± 1.83%.

With `O=C(CC(CO)N1CCN(c2ccc(OC(F)(F)F)cc2)CC1)Nc1ccc(Cl)cc1` (stereo not shown) [VBIT-4], the 50% inhibitory concentration (IC50) in data set [1] (RAW264.7 cells) came to 19.8 µM. Further, the Mortality in the data set on mice (dosage 60.00 mg/kg) amounted to 0; with mice (dosage 71.14 mg/kg) it was 14.286; with mice (dosage 84.34 mg/kg), 83.333; in the data set on mice (dosage 100.00 mg/kg), 100. Moreover, the median lethal dose (LD50) with mice (single intravenous injection) is given as 75.828 mg/kg.

Regarding `O=C(O)CNC(=O)C1(Nc2ccccc2)CCN(Cc2cccc3ccccc23)CC1` [VBIT-12, reference compound], the half-inhibitory concentration (IC50) in data set [1] (RAW264.7 cells) was 83.1 µM.

As a reminder, the inhibition is the drop in the measured response relative to a control, in per cent. A word on the IC50: it is the point on the concentration scale where inhibition reaches its midpoint. A word on the LD50: it is the dose expected to kill half of the subjects tested.
